Reference: paper PMC4620681 (Bioorganic & medicinal chemistry letters, 2015)

Tests used:
[1] = molecular target: human KOR (hKOR) (Homo sapiens, UniProt P41145); conditions: cited from earlier work
[2] = molecular target: hKOR (Homo sapiens, UniProt P41145); experiment: biochemical; assay type: biochemical; conditions: for Emax: read-out: Emax (percentage of maximal response to U50,488H); for Emax at 1 µM: read-out: Emax at 1 μM (percentage of maximal response to U50,488H)
Sequence of hKOR (P41145 whole entry): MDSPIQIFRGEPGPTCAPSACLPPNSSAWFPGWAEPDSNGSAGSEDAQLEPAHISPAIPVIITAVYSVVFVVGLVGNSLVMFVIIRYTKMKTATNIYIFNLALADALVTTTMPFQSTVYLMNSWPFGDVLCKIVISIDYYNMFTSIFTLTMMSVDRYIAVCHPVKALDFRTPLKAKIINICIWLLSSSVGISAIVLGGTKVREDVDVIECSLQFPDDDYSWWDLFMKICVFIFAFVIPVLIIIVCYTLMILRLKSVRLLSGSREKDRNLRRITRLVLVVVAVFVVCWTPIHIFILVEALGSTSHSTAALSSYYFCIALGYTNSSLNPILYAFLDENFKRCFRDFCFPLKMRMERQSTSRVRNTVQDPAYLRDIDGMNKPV

Sequence of human KOR (hKOR) (P41145 whole entry): as above

Row | Compound | Emax at 1 µM [2] [%] | other results
1 | COC(=O)[C@@H]1C[C@H](O)C(=O)[C@H]2[C@@]1(C)CC[C@H]1C(=O)O[C@H](c3ccoc3)C[C@]21C [Compound 2, Salvinorin B] | – | affinity to KOR (in words) [1]: comparatively much lower affinity; fold lower affinity than its epimer [1]: 3 fold
2 | COC[C@@]1(C)C[C@@H](C(=O)OC)[C@]2(C)CC[C@H]3C(=O)O[C@H](c4ccoc4)C[C@]3(C)[C@H]2C1=O [Compound 9a, 2-methyl-2-methoxymethyl-salvinorin ether] | – | agonist / antagonist activity at KOR [2]: potent full agonist; Emax [2]: 123 ± 16%
3 | COC[C@@]1(C)C[C@@H](C(=O)OC)[C@]2(C)CC[C@@H]3C(=O)O[C@H](c4ccoc4)C[C@]3(C)[C@H]2C1=O [Compound 9b] | – | Emax [2]: 103 ± 16%
4 | CC[C@]1(COC)C[C@@H](C(=O)OC)[C@]2(C)CC[C@H]3C(=O)O[C@H](c4ccoc4)C[C@]3(C)[C@H]2C1=O [Compound 10a] | 83 | –
5 | CC[C@]1(COC)C[C@@H](C(=O)OC)[C@]2(C)CC[C@@H]3C(=O)O[C@H](c4ccoc4)C[C@]3(C)[C@H]2C1=O [Compound 10b] | 81 | –
6 | C=CC[C@]1(COC)C[C@@H](C(=O)OC)[C@]2(C)CC[C@H]3C(=O)O[C@H](c4ccoc4)C[C@]3(C)[C@H]2C1=O [Compound 12a] | 99 | –
7 | C=CC[C@]1(COC)C[C@@H](C(=O)OC)[C@]2(C)CC[C@@H]3C(=O)O[C@H](c4ccoc4)C[C@]3(C)[C@H]2C1=O [Compound 12b] | 84 | –
8 | COC[C@@]1(CCOCCI)C[C@@H](C(=O)OC)[C@]2(C)CC[C@H]3C(=O)O[C@H](c4ccoc4)C[C@]3(C)[C@H]2C1=O [Compound 14a] | 98 | –
9 | COC[C@@]1(CCOCCI)C[C@@H](C(=O)OC)[C@]2(C)CC[C@@H]3C(=O)O[C@H](c4ccoc4)C[C@]3(C)[C@H]2C1=O [Compound 14b] | 85 | –
